From ChEMBL document CHEMBL6127111, “First-in-Class Small Molecule Degrader of Pregnane X Receptor Enhances Chemotherapy Efficacy” (J Med Chem, 2024) come the findings set out here.

SMILES strings stand for the structures.

Series [1] is described as follows: Cytotoxicity against human SNU-C4 HiBiT-PXR KI cell assessed as cell viability incubated for 72 hrs by celltiter-glo luminescent assay. Format: functional.
A short description of series [2]: Cytotoxicity against human SNU-C4 HiBiT-PXR KI cell assessed as cell viability incubated for 24 hrs by celltiter-glo luminescent assay. Format: functional. Background: With HiBiT, luminescence reflects the tagged protein that the partner subunit can reach.
Series [3] in a line: Cytotoxicity against human SNU-C4 HiBiT-PXR KI cell assessed as cell viability at 30 uM incubated for 24 hrs by celltiter-glo luminescent assay relative to control. In kind it is functional. The conditions noted are these: read-out: Activity.
Series [4] can be described thus: Cytotoxicity against human SNU-C4 HiBiT-PXR KI cell assessed as cell viability at 30 uM incubated for 72 hrs by celltiter-glo luminescent assay relative to control. Format: functional. As to conditions: read-out: Activity; call rule not given here.
Series [5] addresses von Hippel-Lindau disease tumor suppressor/Nuclear receptor subfamily 1 group I member 2 (Homo sapiens, UniProt O75469+P40337). Briefly: PROTAC activity at N-terminal PXR/VHL in human SNU-C4 HiBiT-PXR KI cell assessed as reduction in PXR protein level incubated for 24 hrs by Western blot analysis. In kind it is cell-based.
The target in series [6] is T1, Nuclear receptor subfamily 1 group I member 2 (Homo sapiens, UniProt O75469).
T1 sequence (O75469 whole entry): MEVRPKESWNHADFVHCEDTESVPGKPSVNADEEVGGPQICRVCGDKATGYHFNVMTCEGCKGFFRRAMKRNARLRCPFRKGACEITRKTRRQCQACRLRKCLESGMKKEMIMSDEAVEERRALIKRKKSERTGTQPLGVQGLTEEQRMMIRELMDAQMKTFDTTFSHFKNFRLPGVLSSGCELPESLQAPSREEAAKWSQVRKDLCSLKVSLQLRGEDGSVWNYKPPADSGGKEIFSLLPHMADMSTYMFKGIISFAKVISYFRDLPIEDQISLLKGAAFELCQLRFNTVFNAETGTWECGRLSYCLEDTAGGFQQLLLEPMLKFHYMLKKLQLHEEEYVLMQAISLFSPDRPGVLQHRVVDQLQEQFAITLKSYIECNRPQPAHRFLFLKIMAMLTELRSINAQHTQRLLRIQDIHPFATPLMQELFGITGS
Briefly: Displacement of BODIPY FL-probe from GST-tagged PXR LBD (unknown origin) incubated for 90 mins by TR-FRET assay. (In general: In TR-FRET formats the signal depends on donor and acceptor labels being close together.)

For orientation: CC50 means the concentration at which the toxic effect on the cells reaches its halfway point.

Sequence of von Hippel-Lindau disease tumor suppressor/Nuclear receptor subfamily 1 group I member 2 (P40337 whole entry, one chain of several): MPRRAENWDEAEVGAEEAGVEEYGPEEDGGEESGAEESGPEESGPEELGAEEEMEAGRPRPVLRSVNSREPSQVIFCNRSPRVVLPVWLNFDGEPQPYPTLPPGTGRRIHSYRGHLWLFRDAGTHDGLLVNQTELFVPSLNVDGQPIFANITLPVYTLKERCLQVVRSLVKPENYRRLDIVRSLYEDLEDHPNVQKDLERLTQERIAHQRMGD

For the compound `COc1cc(OCCCCCCOCCOCC(=O)N[C@H](C(=O)N2C[C@H](O)C[C@H]2C(=O)NCc2ccc(-c3scnc3C)cc2)C(C)(C)C)c(C)cc1-n1nnc(S(=O)(=O)c2ccc(C(C)(C)C)cc2)c1C`, the CC50 in series [1] and in series [2] was > 30 µM each time.
In the case of `CCCCOc1ccc(C(C)(C)C)cc1NC(=O)c1nnn(-c2cc(C)c(OCCCCCCOCCOCC(=O)N[C@H](C(=O)N3C[C@H](O)C[C@H]3C(=O)NCc3ccc(-c4scnc4C)cc3)C(C)(C)C)cc2OC)c1C`, the viability at 30 µM is 96.7% in series [3] and 91.2% in series [4]. In addition, the CC50 in series [1] and in series [2] was > 30 µM each time.
Take `COc1cc(OCCCCCCOCCOCCOCCOCCOCCOCC(=O)N[C@H](C(=O)N2C[C@H](O)C[C@H]2C(=O)NCc2ccc(-c3scnc3C)cc2)C(C)(C)C)c(C)cc1-n1nnc(S(=O)(=O)c2ccc(C(C)(C)C)cc2)c1C`: the CC50 in series [1] and in series [2] was > 30 µM in each case. Further, the DC50 in series [5] is > 30 µM.
Take `CCC[C@H](CC)Oc1ccc(C(=O)NCCCCC(=O)N[C@H](C(=O)N2C[C@H](O)C[C@H]2C(=O)NCc2ccc(-c3scnc3C)cc2)C(C)(C)C)cc1NC(=O)c1nnn(-c2cc(OC)ccc2OC)c1C`: the viability at 30 µM in series [3] worked out at 101%; in series [4], 98.9%. The CC50 in series [1] and in series [2] was > 30 µM in each case. For the same compound, the DC50 in series [5] was > 30 µM.
Take `COc1cc(OCC(=O)NCCOCCOCCOCCOCC(=O)N[C@H](C(=O)N2C[C@H](O)C[C@H]2C(=O)NCc2ccc(-c3scnc3C)cc2)C(C)(C)C)c(C)cc1-n1nnc(S(=O)(=O)c2ccc(C(C)(C)C)cc2)c1C`: the CC50 in series [1] and in series [2] was > 30 µM throughout. In series [5], the DC50 is > 30 µM.
Consider `COc1cc(OCC(=O)N[C@H](C(=O)N2C[C@H](O)C[C@H]2C(=O)NCc2ccc(-c3scnc3C)cc2)C(C)(C)C)c(C)cc1-n1nnc(S(=O)(=O)c2ccc(C(C)(C)C)cc2)c1C`, for which the CC50 in series [1] and in series [2] was > 30 µM in each case. In addition, in series [5], the DC50 is > 30 µM.
With `COc1cc(OCCOCCC(=O)N[C@H](C(=O)N2C[C@H](O)C[C@H]2C(=O)NCc2ccc(-c3scnc3C)cc2)C(C)(C)C)c(C)cc1-n1nnc(S(=O)(=O)c2ccc(C(C)(C)C)cc2)c1C`, the CC50 in series [1] and in series [2] was > 30 µM each time. The DC50 in series [5] was > 30 µM.
Turning to `CCC[C@H](CC)Oc1ccc(C(C)(C)C)cc1NC(=O)c1nnn(-c2cc(OC)ccc2OC)c1C`, the viability at 30 µM amounted to 95.7% in series [3] and 98.7% in series [4]. Besides, the CC50 in series [1] and in series [2] was > 30 µM each time. The DC50 in series [5] was > 30 µM.
For the compound `CCC[C@H](CC)Oc1ccc(C(=O)N[C@H](C(=O)N2C[C@H](O)C[C@H]2C(=O)NCc2ccc(-c3scnc3C)cc2)C(C)(C)C)cc1NC(=O)c1nnn(-c2cc(OC)ccc2OC)c1C`, the viability at 30 µM in series [3] is 99.9%; in series [4] it was 101%. For the same compound, the CC50 in series [1] and in series [2] was > 30 µM throughout. Also, in series [5], the DC50 is > 30 µM.
On to `CCC[C@H](CC)Oc1ccc(C(=O)NCCOCCOCC(=O)N[C@H](C(=O)N2C[C@H](O)C[C@H]2C(=O)NCc2ccc(-c3scnc3C)cc2)C(C)(C)C)cc1NC(=O)c1nnn(-c2cc(OC)ccc2OC)c1C`, for which the viability at 30 µM in series [3] was 103%; in series [4], 89.7%. Also, the CC50 in series [1] and in series [2] was > 30 µM throughout. For the same compound, the DC50 in series [5] was > 30 µM.
In the case of `CCC[C@H](CC)Oc1ccc(C(=O)NCCOCCOCCOCC(=O)N[C@H](C(=O)N2C[C@H](O)C[C@H]2C(=O)NCc2ccc(-c3scnc3C)cc2)C(C)(C)C)cc1NC(=O)c1nnn(-c2cc(OC)ccc2OC)c1C`, the results for the viability at 30 µM in series [3] and in series [4] were 98.3% and 89.1%, respectively. Moreover, the CC50 in series [1] and in series [2] was > 30 µM throughout. Also, the DC50 in series [5] was > 30 µM.
As to `CCC[C@H](CC)Oc1ccc(C(=O)NCCOCCOCCOCCOCC(=O)N[C@H](C(=O)N2C[C@H](O)C[C@H]2C(=O)NCc2ccc(-c3scnc3C)cc2)C(C)(C)C)cc1NC(=O)c1nnn(-c2cc(OC)ccc2OC)c1C`, the viability at 30 µM in series [3] was found to be 100%; in series [4], 84.1%. The CC50 in series [1] and in series [2] was > 30 µM in each case. For the same compound, in series [5], the DC50 is > 30 µM.
As to `CCC[C@H](CC)Oc1ccc(C(=O)NCCCCCCCCC(=O)N[C@H](C(=O)N2C[C@H](O)C[C@H]2C(=O)NCc2ccc(-c3scnc3C)cc2)C(C)(C)C)cc1NC(=O)c1nnn(-c2cc(OC)ccc2OC)c1C`, the viability at 30 µM was found to be 102% in series [3] and 104% in series [4]. The half-maximal cytotoxic concentration (CC50) in series [1] and in series [2] was > 30 µM throughout. For the same compound, the DC50 in series [5] is > 30 µM.
`COc1cc(OCCCCCCOCCCCCOCCCCCC(=O)N[C@H](C(=O)N2C[C@H](O)C[C@H]2C(=O)NCc2ccc(-c3scnc3C)cc2)C(C)(C)C)c(C)cc1-n1nnc(S(=O)(=O)c2ccc(C(C)(C)C)cc2)c1C`: the viability at 30 µM in series [4] was determined as 94.3%. Besides, the CC50 in series [1] and in series [2] was > 30 µM in each case.
On to `COc1cc(OCCOCCOCCOCCOCCC(=O)N[C@H](C(=O)N2C[C@H](O)C[C@H]2C(=O)NCc2ccc(-c3scnc3C)cc2)C(C)(C)C)c(C)cc1-n1nnc(S(=O)(=O)c2ccc(C(C)(C)C)cc2)c1C`, for which the CC50 in series [1] and in series [2] was > 30 µM in each case. Besides, the DC50 in series [5] is > 30 µM.
`COc1cc(OCCCCCCCC(=O)N[C@H](C(=O)N2C[C@H](O)C[C@H]2C(=O)NCc2ccc(-c3scnc3C)cc2)C(C)(C)C)c(C)cc1-n1nnc(S(=O)(=O)c2ccc(C(C)(C)C)cc2)c1C`: the CC50 in series [1] and in series [2] was > 30 µM throughout. In addition, the DC50 in series [5] was > 30 µM.
Regarding `CC(=O)N[C@H](C(=O)N1C[C@H](O)C[C@H]1C(=O)NCc1ccc(-c2scnc2C)cc1)C(C)(C)C`, the viability at 30 µM came to 99.6% in series [3] and 93% in series [4]. The CC50 in series [1] and in series [2] was > 30 µM each time.
As for `COc1cc(OCCOCCOCCC(=O)N[C@H](C(=O)N2C[C@H](O)C[C@H]2C(=O)NCc2ccc(-c3scnc3C)cc2)C(C)(C)C)c(C)cc1-n1nnc(S(=O)(=O)c2ccc(C(C)(C)C)cc2)c1C`, the viability at 30 µM in series [4] came out at 98.9%. Further, the CC50 in series [1] and in series [2] was > 30 µM throughout. In addition, in series [5], the DC50 is > 30 µM.
Regarding `CCC[C@H](CC)Oc1ccc(C(C)(C)C)cc1NC(=O)c1nnn(-c2cc(C)c(OC)cc2OC)c1C`, the viability at 30 µM in series [3] is 99.3%; in series [4], 106%. In addition, the CC50 in series [1] and in series [2] was > 30 µM throughout. Further, in series [5], the DC50 was > 30 µM.
`COc1ccc(OC)c(-n2nnc(C(=O)Nc3cc(OCCCCCCOCCOCC(=O)N[C@H](C(=O)N4C[C@H](O)C[C@H]4C(=O)NCc4ccc(-c5scnc5C)cc4)C(C)(C)C)cc(C(C)(C)C)c3)c2C)c1`: the results for the viability at 30 µM in series [3] and in series [4] were 83.2% and 68.2%, respectively. In addition, the half-maximal cytotoxic concentration (CC50) in series [1] and in series [2] was > 30 µM each time.
Regarding `COc1cc(OCCCC(=O)N[C@H](C(=O)N2C[C@H](O)C[C@H]2C(=O)NCc2ccc(-c3scnc3C)cc2)C(C)(C)C)c(C)cc1-n1nnc(S(=O)(=O)c2ccc(C(C)(C)C)cc2)c1C`, the viability at 30 µM in series [4] turned out to be 95.4%. The CC50 in series [1] and in series [2] was > 30 µM in each case. Further, the DC50 in series [5] was > 30 µM.
Regarding `CCC[C@H](CC)Oc1ccc(C(=O)OC)cc1NC(=O)c1nnn(-c2cc(OC)ccc2OC)c1C`, the results for the viability at 30 µM in series [3] and in series [4] were 95.6% and 94.9%, respectively. The CC50 in series [1] and in series [2] was > 30 µM throughout. The outcome in series [6] was Active. Besides, the DC50 in series [5] is > 30 µM.
As for `COc1cc(OCCCCCCOCCOCCOCCCCCC(=O)N[C@H](C(=O)N2C[C@H](O)C[C@H]2C(=O)NCc2ccc(-c3scnc3C)cc2)C(C)(C)C)c(C)cc1-n1nnc(S(=O)(=O)c2ccc(C(C)(C)C)cc2)c1C`, the CC50 in series [1] and in series [2] was > 30 µM each time. In addition, the DC50 in series [5] was > 30 µM.
On to `CCC[C@H](CC)Oc1ccc(C(C)(C)C)cc1NC(=O)c1nnn(-c2cc(C)c(OCCCCCCOCCOCC(=O)N[C@H](C(=O)N3C[C@H](O)C[C@H]3C(=O)NCc3ccc(-c4scnc4C)cc3)C(C)(C)C)cc2OC)c1C`, for which the viability at 30 µM in series [3] worked out at 93.9%; in series [4], 104%. In addition, the CC50 in series [1] and in series [2] was > 30 µM in each case.
Consider `COc1cc(OCCOCCOCCOCCC(=O)N[C@H](C(=O)N2C[C@H](O)C[C@H]2C(=O)NCc2ccc(-c3scnc3C)cc2)C(C)(C)C)c(C)cc1-n1nnc(S(=O)(=O)c2ccc(C(C)(C)C)cc2)c1C`, for which the CC50 in series [1] and in series [2] was > 30 µM throughout. Besides, in series [5], the DC50 was > 30 µM.
As for `COc1cc(OCCOCCOCCOCCOCCOCCC(=O)N[C@H](C(=O)N2C[C@H](O)C[C@H]2C(=O)NCc2ccc(-c3scnc3C)cc2)C(C)(C)C)c(C)cc1-n1nnc(S(=O)(=O)c2ccc(C(C)(C)C)cc2)c1C`, the CC50 in series [1] and in series [2] was > 30 µM in each case. In series [5], the DC50 is > 30 µM.
